Assay results reported in US20130245081A1, “Compositions and Methods for Treating Amyotrophic Lateral Sclerosis” (priority 2009, published 2013).

Assay: clinical
Details: for AUC(0-t) / AUC(0-inf) / Cmax / Tmax / Vd/F / half-life / CL renal: both, human, oral; for AUC(0-t) / AUC(0-inf) / Cmax / Tmax / Vd/F / half-life: plasma; for AUC(0-t): AUC0-t; for AUC(0-inf): AUCinf; for Vd/F: Vz/F; for CL renal: urine and plasma, CLr
Excerpt: A total of 54 subjects (30 subjects in Study CL001 and 24 subjects in Study CL002) were enrolled. Healthy, non-smoking, male and female subjects 30 to 60 years of age, inclusive, with normal or clinically acceptable physical examination and electrocardiogram (ECG) findings, systolic (90 to 140 mmHg) and diastolic (50 to 90 mmHg) blood pressure, and resting heart rate (50 to 100 bpm) who were willing to provide signed, written informed consent were eligible for enrollment. Female volunteers had to be of non-childbearing potential with negative pregnancy test results at screening and clinic check-in. Subjects with any history of neurodegenerative illnesses were excluded. The use of over-the-counter medications within 7 days prior to enrollment or prescription medications within 12 weeks prior to enrollment was prohibited.
In the first study, subjects were enrolled in 3 successive double-blind, placebo-controlled panels of 8 subjects (n=6 active, n=2 placebo per panel).
Matching placebo capsules contained equivalent weights of microcrystalline cellulose. Capsules were administered orally with water. […] Subjects in the fasted cohorts were required to fast overnight for a minimum of 10 hours before dose administration. Subjects in the food cohort were required to fast overnight for a minimum of 10 hours before dose administration, with exception of the high fat/high calorie meal that was administered 30 minutes prior to drug administration. […] All available safety data were reviewed under blinded conditions to monitor for serious safety or tolerability events prior to proceeding with dose escalations.
Blood samples were collected into a 10 mL dipotassium ethylenediaminetetraacetic acid (K2-EDTA) Vacutainer® via an indwelling peripheral intravenous cannula or by direct venipuncture. Within 15 minutes of collection, the samples were centrifuged at 3000 rpm for 10 minutes at 4° C. After centrifugation, the plasma was divided into 2 aliquots of at least 1.5 mL each, placed into polypropylene containers, frozen, and stored at −20° C. until they were shipped for analysis.
Urine collected in each interval was well mixed, the pH was recorded, the total volume (or the weight and specific gravity) was recorded, and 2 aliquots of 20 mL each were collected into polypropylene containers and stored at −20° C. until they were shipped for analysis. All plasma and urine sample were shipped frozen on dry ice in 2 separate shipments per group (1 set of aliquots per shipment) to Eurofins AvTech Laboratories Inc. (Kalamazoo, Mich.) for bioanalytical analysis.
Plasma and urine concentrations were measured using validated liquid chromatography/mass spectrometry/mass spectrometry (LC/MS/MS) methods. […] The analytical procedure for analysis of plasma samples used a 100 μL aliquot of K2EDTA human plasma. The plasma sample was spiked with 20 μL of working internal standard solution and 20 μL of type 1 water for subject samples and QCs and 20 μL of the appropriate intermediate standard solution for standards. One hundred microliters ([…]) of 50% ammonium hydroxide solution was added to the sample followed by vortex mixing. One milliliter (1 mL) of tertbutyl methyl ether was then added and the sample was vortexed to extract the analyte and internal standard into the organic layer, followed by separation using flash freezing. The organic layer was decanted, evaporated to dryness, and the sample was reconstituted with 0.5 mL of reconstitution solution (0.1% ammonium hydroxide in 50:50 methanol; type 1 water (v/v/v)). A 10 μL aliquot of this reconstituted sample was injected into an LC/MS/MS system for analysis. […] The analytical procedure for analysis of urine samples was essentially similar to the plasma procedure.

CCCN[C@@H]1CCc2nc(N)sc2C1 [dexpramipexole, (6R)-2-amino-4,5,6,7-tetrahydro-6-(propylamino)benzothiazole]
eliminated in urine as unchanged parent drug (both Phase 1 studies): 84-90 % of dose
AUC(0-t) (50 mg, single 50 mg, fasted): 989 ± 295 ng·h/mL
AUC(0-inf) (50 mg, single 50 mg, fasted): 1250 ± 347 ng·h/mL
Cmax (50 mg, single 50 mg, fasted): 125 ± 22 ng/mL
Tmax (50 mg, Tmax (median), single 50 mg, fasted): 2.04 h
Vd/F (50 mg, single 50 mg, fasted): 294 ± 46.2 L
AUC(0-t) (150 mg, single 150 mg, fasted): 3360 ± 780 ng·h/mL
AUC(0-t) (150 mg, single 150 mg, fed): 3080 ± 934 ng·h/mL
AUC(0-inf) (150 mg, single 150 mg, fasted): 3780 ± 1010 ng·h/mL
AUC(0-inf) (150 mg, single 150 mg, fed): 3380 ± 957 ng·h/mL
Cmax (150 mg, single 150 mg, fasted): 360 ± 60.4 ng/mL
Cmax (150 mg, single 150 mg, fed): 315 ± 61.6 ng/mL
Tmax (150 mg, Tmax (median), single 150 mg, fasted): 2.04 h
Tmax (150 mg, Tmax (median), single 150 mg, fed): 2.58 h
Vd/F (150 mg, single 150 mg, fasted): 311 ± 68.4 L
Vd/F (150 mg, single 150 mg, fed): 308 ± 55.9 L
half-life (150 mg, t1/2, single 150 mg, fed): 380 ± 89.4 min
AUC(0-t) (300 mg, single 300 mg, fasted): 8340 ± 3200 ng·h/mL
AUC(0-inf) (300 mg, single 300 mg, fasted): 8620 ± 3260 ng·h/mL
Cmax (300 mg, single 300 mg, fasted): 781 ± 158 ng/mL
Tmax (300 mg, Tmax (median), single 300 mg, fasted): 1.98 h
Vd/F (300 mg, single 300 mg, fasted): 258 ± 73.5 L
half-life (300 mg, elimination t1/2, single 50, 150, 300 mg, fasted): 384 to 418 min
Tmax (Tmax, range over both Phase 1 studies, single and multiple doses): 1.75 to 2.58 h
half-life (t1/2, range over both Phase 1 studies, fasted conditions): 384 to 483 min
CL renal (50 mg, single 50 mg, fasted): 628 ± 149 mL/min
CL renal (150 mg, single 150 mg, fasted): 385 mL/min
CL renal (150 mg, single 150 mg, fed): 559 ± 140 mL/min
CL renal (300 mg, single 300 mg, fasted): 441 ± 159 mL/min
time of maximum concentrations after dosing (oral administration): 2 h
CL/F (single 50 mg, fasted): 527 ± 135 mL/min
Fe (single 50 mg, fasted): 94.7 ± 13.9 % dose
Ue (single 50 mg, fasted): 35.3 ± 5.19 mg
λz (single 50 mg, fasted): 0.1064 ± 0.0171 h⁻¹
CL/F (single 150 mg, fasted): 524 ± 146 mL/min
Fe (single 150 mg, fasted): 66.9 ± 44.8 % dose
Ue (single 150 mg, fasted): 74.8 ± 50.17 mg
λz (single 150 mg, fasted): 0.1001 ± 0.0087 h⁻¹
CL/F (single 150 mg, fed): 581 ± 127 mL/min
Fe (single 150 mg, fed): 86.6 ± 4.21 % dose
Ue (single 150 mg, fed): 96.9 ± 4.71 mg
λz (single 150 mg, fed): 0.1144 ± 0.0259 h⁻¹
CL/F (single 300 mg, fasted): 492 ± 194 mL/min
Fe (single 300 mg, fasted): 88.3 ± 12.5 % dose
Ue (single 300 mg, fasted): 198 ± 28.0 mg
λz (single 300 mg, fasted): 0.1151 ± 0.0309 h⁻¹
dose recovered as unchanged parent drug in the urine (single doses): Approximately 90%
